A value given as a limit tells only on which side of the number the result lay.

Type in all cases: cell-based
Experiment [1] deals with alpha-smooth muscle actin (α-SMA). In words: Inhibition of TGF-β induced expression of alpha-smooth muscle actin (α-SMA) in CFSC cells (western blot). As to conditions: compound at 10 μM, TGF-β (10 ng/mL), 24 hours, band intensity vs TGF-β only. As to the method:
The ability of a compound to inhabit the TGF-β induced expression of alpha-smooth muscle actin (α-SMA) was evaluated in CCl4-treated fat storing (CFSC) cells. α-SMA is considered as a reliable marker of hepatic stellate cell activation and a key biomarker for liver fibrosis.
CFSC cells maintained in a DMEM medium supplemented with 10% fetal bovine serum were seeded to 12-well culture dishes and grown to a confluence of 60-70% the next day. Culture was changed to a serum-free DMEM medium, and the cells were treated with a compound at 10 μM in the presence of TGF-β (10 ng/mL). The cells were incubated for another 24 hours. All culture was maintained at 37° C. in 5% carbon dioxide.
An NP-40 lysate solution (50 mM Tris (pH 7.4), 150 mM NaCl, 1% NP-40) with EDTA free cocktail added was used to lyse the cells on ice for 30 min. The lysate was collected and centrifuged at 4° C. for 10 min at 12,000 rpm. The pellet was discarded and the supernatant was transferred to a new tube. Cell lysates were loaded with 5× loading buffer and boiled for 10 min, resolved by 10% SDS-polyacrylamide gel electrophoresis (SDS-PAGE), and transferred to PVDF membrane. The membrane was blocked with 5% skim milk in Tris-buffered saline and TWEEN® 20 (TBST; 10 mM Tris-HCl (pH 8.0), 150 mM NaCl, 0.1% TWEEN® 20) for 1 h at room temperature and then incubated with α-SMA and β-actin antibodies overnight at 4° C. After washing twice with TBST, the membrane was probed with a horseradish […] anti-immunoglobulin (1:5000 dilution) for 1 h at room temperature. After two subsequent rinses in TBST, immunoreactive products were reacted with ECL and visualized by a UVP CHEMSTUDIO™ imaging system. The western blotting bands are quantitated using an ImageJ software. The percentage of inhibition was obtained by calculating the percentage decrease in the band intensity compared to the one treated with TGF-β only.
The results are summarized in Table 1, where A represents a value no less of 80% inhibition, B represents a value less than […] but no less than […], C represents a value less than 50% but no less than 30% inhibition, and D represents a value less than 30% inhibition with a compound at 10 μM.
(In western blotting, separated proteins are transferred to a membrane and probed.)

Experiment [2] deals with MDA-MB-231 (breast cancer). As to the kind of experiment: Antiproliferative activity (CCK-8 cell viability), MDA-MB-231. As to conditions: Homo sapiens, 72 h, read-out: Antiproliferative activity in cancerous cells, MDA-MB-231 (inhibition of cell growth); for inhibition at 3.3 µM: Compound concentration: 3.3 μM; for inhibition at 10 µM: Compound concentration: 10 μM; for inhibition at 30 µM: Compound concentration: 30 μM. In short, it runs like this: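 MDA-MB-231 breast cancer cells, grown in DMEM with 10% FBS, were plated in 96-well plates at 2,000-5,000 cells/well. Once attached, they were exposed to compound and incubated at 37° C. for 72 h. Viability was then measured with CCK-8 (10 μL per well, 4 h at 37° C.) by absorbance at 450 nm, relative to DMSO vehicle wells.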

Experiment [3] relates to HepG2 (liver cancer). As to the kind of experiment: Antiproliferative activity (CCK-8 cell viability), HepG2. As to conditions: Homo sapiens, 72 h, read-out: Antiproliferative activity in cancerous cells, HepG2 (inhibition of cell growth); for inhibition at 3.3 µM: Compound concentration: 3.3 μM; for inhibition at 10 µM: Compound concentration: 10 μM; for inhibition at 30 µM: Compound concentration: 30 μM. In short, it runs like this: (§1)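 Cells grown in DMEM (HepG2, SW480), MEM (HeLa) or F-12K (A549), each with 10% FBS, then exposed to compound at 3.3, 10 or 30 μM for 72 h at 37 °C. CCK-8 absorbance at 450 nm; viability expressed as percent of DMSO-treated cells, graded as growth inhibition bands.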

Experiment [4] deals with SW480 (colon cancer). As to the kind of experiment: Antiproliferative activity (CCK-8 cell viability), SW480. As to conditions: Homo sapiens, 72 h, read-out: Antiproliferative activity in cancerous cells, SW480 (inhibition of cell growth); for inhibition at 3.3 µM: Compound concentration: 3.3 μM; for inhibition at 10 µM: Compound concentration: 10 μM; for inhibition at 30 µM: Compound concentration: 30 μM. In outline: as §1

Experiment [5] concerns B16F10 (malignant melanoma). In words: Antiproliferative activity (CCK-8 cell viability), B16F10. As to conditions: Mus musculus, 72 h, read-out: Antiproliferative activity in cancerous cells, B16F10 (inhibition of cell growth); for inhibition at 3.3 µM: B16-F10, Compound concentration: 3.3 μM; for inhibition at 10 µM: B16-F10, Compound concentration: 10 μM; for inhibition at 30 µM: B16-F10, Compound concentration: 30 μM. In outline:
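B16F10 melanoma cells grown in DMEM with 10% FBS were plated in 96-well plates at 2,000-5,000 cells/well. After attachment they were exposed to compound in medium for 72 h at 37° C. CCK-8 solution (10 μL) was then added, and after 4 h at 37° C absorbance was read at 450 nm.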

For experiment [6], the system named is A431 (epidermoid carcinoma). As to the kind of experiment: Antiproliferative activity (CCK-8 cell viability), A431. As to conditions: Homo sapiens, 72 h, read-out: Antiproliferative activity in cancerous cells, A431 (inhibition of cell growth); for inhibition at 3.3 µM: A-431, Compound concentration: 3.3 μM; for inhibition at 10 µM: A-431, Compound concentration: 10 μM; for inhibition at 30 µM: A-431, Compound concentration: 30 μM. In short, it runs like this: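 A431 epidermoid carcinoma cells grown in DMEM with 10% FBS were plated at 2,000-5,000 cells/well in 96-well plates. After attachment they were exposed to compound at 3.3 μM, 10 μM, or 30 μM for 72 h at 37° C. Viability was then assessed by CCK-8 against DMSO vehicle-treated wells.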

The test system of experiment [7] is A549 (lung adenocarcinoma). As to the kind of experiment: Antiproliferative activity (CCK-8 cell viability), A549. As to conditions: Homo sapiens, 72 h, read-out: Antiproliferative activity in cancerous cells, A549 (inhibition of cell growth); for inhibition at 3.3 µM: Compound concentration: 3.3 μM; for inhibition at 10 µM: Compound concentration: 10 μM; for inhibition at 30 µM: Compound concentration: 30 μM. In short, it runs like this: as §1

Experiment [8] concerns HeLa (cervical cancer). In words: Antiproliferative activity (CCK-8 cell viability), HeLa. As to conditions: Homo sapiens, 72 h, read-out: Antiproliferative activity in cancerous cells, HELA (inhibition of cell growth); for inhibition at 3.3 µM: Compound concentration: 3.3 μM; for inhibition at 10 µM: Compound concentration: 10 μM; for inhibition at 30 µM: Compound concentration: 30 μM. In short, it runs like this: as §1

For the compound `CC1=C(CC(=O)O)c2cc(F)ccc2/C1=C/c1ccc(F)cc1OCc1ccccc1` [E5, (E)-2-(1-(2-(Benzyloxy)-4-fluorobenzylidene)-5-fluoro-2-methyl-1H-inden-3-yl)-acetic acid], the inhibition at 10 µM was more than 80% in experiment [1]; 30 to 50% in experiment [2]; not below 50% in experiment [3]; 30 to 50% in experiment [4]; not below 50% in experiment [5]; 30 to 50% in experiment [6]. In addition, the inhibition at 10 µM in experiment [7] and in experiment [8] was not below 50% in each case. Also, the inhibition at 3.3 µM is 30 to 50% in experiment [2]; 30 to 50% in experiment [3]; 30 to 50% in experiment [4]; not below 50% in experiment [5]; less than 30% in experiment [6]; less than 30% in experiment [7]. In addition, the inhibition at 3.3 µM in experiment [8] is less than 30%. In addition, the inhibition at 30 µM in experiment [2], in experiment [3], in experiment [4], in experiment [5], in experiment [6] and in experiment [7] was not below 50% in each case. Also, the inhibition at 30 µM in experiment [8] was not below 50%.
Consider `CC1=C(CC(=O)O)c2ccc(F)c(F)c2/C1=C/c1ccc(Oc2ccc(F)cc2)cc1` [E3, (E)-2-(6,7-Difluoro-1-(4-(4-fluorophenoxy)benzylidene)-2-methyl-1H-inden-3-yl)acetic acid], for which the inhibition at 10 µM in experiment [1] was more than 80%; in experiment [2], not below 50%; in experiment [3], not below 50%; in experiment [4], not below 50%; in experiment [5] it was not below 50%; in experiment [6], not below 50%. Moreover, the inhibition at 10 µM in experiment [7] and in experiment [8] was not below 50% throughout. For the same compound, the inhibition at 3.3 µM was not below 50% in experiment [2]; not below 50% in experiment [3]; 30 to 50% in experiment [4]; 30 to 50% in experiment [5]; not below 50% in experiment [6]; 30 to 50% in experiment [7]. Moreover, the inhibition at 3.3 µM in experiment [8] was not below 50%. Moreover, the inhibition at 30 µM in experiment [2], in experiment [3], in experiment [4], in experiment [5], in experiment [6] and in experiment [7] was not below 50% in each case. The inhibition at 30 µM in experiment [8] was not below 50%.
On to `CC(C)c1ccc(/C=C2/C(Cc3ccc(F)cc3)=C(CC(=O)O)c3cc(F)ccc32)cc1` [D2, (Z)-2-(5-Fluoro-2-(4-fluorobenzyl)-1-(4-isopropylbenzylidene)-1H-inden-3-yl)-acetic acid], for which the inhibition at 10 µM in experiment [1] is more than 80%; in experiment [2], not below 50%; in experiment [3], not below 50%; in experiment [4], not below 50%; in experiment [5], not below 50%; in experiment [6] it was not below 50%. The inhibition at 10 µM in experiment [7] and in experiment [8] was not below 50% in each case. Moreover, the inhibition at 3.3 µM in experiment [2] was not below 50%; in experiment [3] it was less than 30%; in experiment [4], less than 30%; in experiment [5] it was less than 30%; in experiment [6], less than 30%; in experiment [7], 30 to 50%. Also, the inhibition at 3.3 µM in experiment [8] fell in the range of 30 to 50%. In addition, the inhibition at 30 µM in experiment [2], in experiment [3], in experiment [4], in experiment [5], in experiment [6] and in experiment [7] was not below 50% in each case. Further, the inhibition at 30 µM in experiment [8] is not below 50%.
As for `CC1=C(CCC(=O)O)c2ccccc2/C1=C/c1cccc(Oc2ccccc2)c1` [E10, (E)-3-(2-Methyl-1-(3-phenoxybenzylidene)-1H-inden-3-yl)propanoic acid], the inhibition at 10 µM in experiment [1], in experiment [2], in experiment [3], in experiment [4], in experiment [5] and in experiment [6] was less than 30% each time. For the same compound, the figures for the inhibition at 10 µM in experiment [7] and in experiment [8] were 30 to 50% and less than 30%, respectively. In addition, the inhibition at 3.3 µM in experiment [2], in experiment [3], in experiment [4], in experiment [5], in experiment [6] and in experiment [7] was less than 30% in each case. Also, the inhibition at 3.3 µM in experiment [8] is less than 30%. Also, the inhibition at 30 µM is not below 50% in experiment [2]; less than 30% in experiment [3]; 30 to 50% in experiment [4]; 30 to 50% in experiment [5]; less than 30% in experiment [6]; not below 50% in experiment [7]. In experiment [8], the inhibition at 30 µM was less than 30%.

By inhibition is commonly meant the percentage by which the read-out fell short of the control.

The values are drawn from US20260184663A1, “INDENE COMPOUNDS, PHARMACEUTICAL COMPOSITIONS THEREOF, AND THEIR THERAPEUTIC APPLICATIONS” (NucMito Pharmaceuticals co. Ltd., priority 2022, published 2026).
